Assay results from PubChem BioAssay (NCI).
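Growth conditions: 96-well plates. Treatment: test compound, 48 hours, 5 concentrations. Analysis: linear interpolation between bracketing concentrations; unreached endpoints set to highest concentration. Abbreviation: GI50, concentration required for 50% inhibition of growth. The concentration for full growth arrest is given as TGI.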

What was measured:
Assay in all cases: growth of human tumour cells (NCI), 48 h
K-562 leukemia = test system: K-562 leukemia
HL-60(TB) leukemia = test system: HL-60(TB) leukemia
MALME-3M melanoma = test system: MALME-3M melanoma
SF-295 CNS = test system: SF-295 CNS
OVCAR-5 ovarian = test system: OVCAR-5 ovarian
CCRF-CEM leukemia = test system: CCRF-CEM leukemia
SNB-19 CNS = test system: SNB-19 CNS
SF-539 CNS = test system: SF-539 CNS
COLO 205 colon = test system: COLO 205 colon
ACHN renal = test system: ACHN renal
SK-MEL-2 melanoma = test system: SK-MEL-2 melanoma
UO-31 renal = test system: UO-31 renal
T-47D breast = test system: T-47D breast
MDA-MB-435 = test system: MDA-MB-435
HS 578T breast = test system: HS 578T breast
DU-145 prostate = test system: DU-145 prostate

Structure (SMILES) | TGI (K-562 leukemia) | TGI (HL-60(TB) leukemia) | TGI (MALME-3M melanoma) | TGI (SF-295 CNS) | TGI (OVCAR-5 ovarian) | TGI (CCRF-CEM leukemia) | TGI (SNB-19 CNS) | TGI (SF-539 CNS) | TGI (COLO 205 colon) | TGI (ACHN renal) | TGI (SK-MEL-2 melanoma) | TGI (UO-31 renal) | TGI (T-47D breast) | TGI (MDA-MB-435) | TGI (HS 578T breast) | TGI (DU-145 prostate) | GI50 (DU-145 prostate) | GI50 (CCRF-CEM leukemia)
CCOC(=O)[C@H]1Nc2ccc(Cl)cc2[C@H]2OCC[C@@H]12 | > 100 µM | > 100 µM | > 100 µM | > 100 µM | > 100 µM | > 100 µM | > 100 µM | > 100 µM | > 100 µM | > 100 µM | > 100 µM |  |  |  |  |  |  | 
CCCc1c(C(=O)OCC)[nH]c(-c2ccc(-c3[nH]c(C(=O)OCC)c(CCC)c3C(=O)OCC)o2)c1C(=O)OCC | > 100 µM | > 100 µM | > 100 µM | > 100 µM | > 100 µM | > 100 µM | > 100 µM | > 100 µM | > 100 µM | > 100 µM | > 100 µM | > 100 µM |  |  |  |  |  | 
CC(C)Oc1ccc(CNC2=NCCO2)c2ccccc12 | 15.8 µM | 23.6 µM | 28 µM | 26.8 µM | 24.3 µM | 30.4 µM | 23 µM | 24 µM | 36.8 µM | 27.7 µM |  | 18.2 µM | 31.3 µM | 24.2 µM | 32 µM | 33.5 µM |  | 
CC1(Br)C(=O)NC(=O)N(C2CC(N=[N+]=[N-])C(CO)O2)C1N=[N+]=[N-] (stereo unspecified) | > 100 µM | > 100 µM | > 100 µM | > 100 µM | > 100 µM | > 100 µM | > 100 µM | > 100 µM | > 100 µM | > 100 µM | > 100 µM | > 100 µM |  |  |  |  |  | 
Cc1ccc2c(c1)SC(c1cc3c(cc1Br)OCO3)S2 (stereo unspecified) | > 31.6 µM | > 31.6 µM | > 31.6 µM | > 31.6 µM | > 31.6 µM | > 31.6 µM | > 100 µM | > 31.6 µM | > 31.6 µM | > 31.6 µM | > 31.6 µM | > 31.6 µM |  |  |  |  |  | 
COc1ccc2nc(NC(=O)C(=O)C(C(=O)c3ccccc3-c3ccccc3)C3OC(=O)c4ccccc43)sc2c1 (stereo unspecified) | > 100 µM | 72.5 µM | 27.6 µM | > 100 µM | 35.9 µM | > 100 µM |  | 28.9 µM | 39.6 µM | 73.9 µM | 28 µM | 47.4 µM |  |  |  |  |  | 
Cc1nc2ccccc2c(=O)n1NC(=S)Nc1cccc(Cl)c1 | > 100 µM | > 100 µM | > 100 µM | > 100 µM | > 100 µM | > 100 µM |  | > 100 µM | > 100 µM | > 100 µM | > 100 µM | > 100 µM |  |  |  |  |  | 
COc1ccc(/C=C2\SC(c3ccc(OC)cc3)N(NC(=O)Cc3ccccc3)C2=O)cc1 (stereo unspecified) | > 100 µM | > 100 µM | > 100 µM | > 100 µM | > 100 µM | > 100 µM |  | > 100 µM | > 100 µM | > 100 µM | > 100 µM | > 100 µM |  |  |  |  |  | 
O=C(Nc1nc2ccccc2n1Cc1ccc(Cl)cc1)NC12CC3CC(CC(C3)C1)C2 | > 100 µM | > 100 µM | 62 µM | 27.3 µM | > 100 µM | > 100 µM | 53.7 µM | 53.4 µM | > 100 µM | > 100 µM | 87.7 µM | > 100 µM |  |  |  |  |  | 
COc1ccc(OC)c(C#Cc2ccc(OC)c(C(=O)NCCc3ccc(F)cc3)c2)c1 | > 100 µM | > 100 µM |  | > 100 µM | > 100 µM | > 100 µM | > 100 µM |  | > 100 µM | > 100 µM | > 100 µM | > 100 µM | > 100 µM | 4.62 µM | > 100 µM | > 100 µM | > 100 µM | 4.72 µM
Cc1nc(-c2nc(C)c(C(=O)NN(C)C)s2)sc1C(=O)NN(C)C | > 100 µM | > 100 µM | > 100 µM | > 100 µM | > 100 µM | > 100 µM | > 100 µM | > 100 µM | 53.9 µM | > 100 µM | > 100 µM | > 100 µM |  |  |  |  |  | 
Cc1nc(-c2cc3c(ccc4ccccc43)oc2=O)cc2c1c(=O)oc1ccc3ccccc3c12 | > 100 µM | > 100 µM | > 100 µM | > 100 µM | > 100 µM | > 100 µM | > 100 µM | > 100 µM | > 100 µM | > 100 µM | > 100 µM | > 100 µM | > 100 µM | > 100 µM |  | > 100 µM |  | 
O=C1Nc2cc([N+](=O)[O-])ccc2C(=O)N2CCC[C@@H]12 | > 100 µM | > 100 µM |  | > 100 µM | > 100 µM | > 100 µM | > 100 µM | > 100 µM | > 100 µM | > 100 µM | > 100 µM | > 100 µM | > 100 µM | > 100 µM | > 100 µM | > 100 µM |  | 
COC(=O)c1c2c(c(-c3ccccc3)c3c1-c1nc(Cl)ccc1CC3)CCc1ccc(Cl)nc1-2 | > 100 µM | > 100 µM | > 100 µM | > 100 µM | > 100 µM | > 100 µM | > 100 µM | > 100 µM | > 100 µM | > 100 µM |  | > 100 µM |  |  |  |  |  | 
